Experimental data from ChEMBL document CHEMBL1146336, “The dicationic derivatives of DBTAA: Interactions with DNA/RNA and antiproliferative effects on human cell lines” (Bioorg Med Chem, 2007).
pIC50: −log10 of the molar value.

Key:
[1] = Binding affinity to poly A-poly U 0.05 mol/dm^3 by UV/vis titration
MCF7 = experiment: Antiproliferative activity against human MCF7 cells after 72 hrs by MTT assay; format: functional, cell-based; settings: MCF7, 72 h
MIA PaCa-2 [2] = experiment: Effect on cell cycle in human MiaPaCa2 cells assessed as accumulation at S phase at 5 uM after 48 hrs by […]; format: functional
MIA PaCa-2 [3] = experiment: Effect on cell cycle in human MiaPaCa2 cells assessed as accumulation at S phase at 5 uM after 72 hrs by […]; format: functional
MIA PaCa-2 [4] = experiment: Effect on cell cycle in human MiaPaCa2 cells assessed as accumulation at G2/M phase at 5 uM after 72 hrs by […]; format: functional
MIA PaCa-2 [5] = experiment: Antiproliferative activity against human MiaPaCa2 cells after 72 hrs by MTT assay a; format: functional, cell-based; settings: MIA PaCa-2, 72 h
MIA PaCa-2 [6] = experiment: Effect on cell cycle in human MiaPaCa2 cells assessed as accumulation at S phase at 5 uM after 24 hrs by […]; format: functional
MIA PaCa-2 [7] = experiment: Effect on cell cycle in human MiaPaCa2 cells assessed as accumulation at G2/M phase at 5 uM after 48 hrs by […]; format: functional
HEp-2 = experiment: Antiproliferative activity against human Hep2 cells after 72 hrs by MTT assay; format: functional, cell-based; settings: HEp-2, 72 h
MIA PaCa-2 [8] = experiment: Effect on cell cycle in human MiaPaCa2 cells assessed as accumulation at G1/G0 phase at 5 uM after 72 hrs by […]; format: functional
MIA PaCa-2 [9] = experiment: Effect on cell cycle in human MiaPaCa2 cells assessed as accumulation at G1/G0 phase at 5 uM after 24 hrs by […]; format: functional
MIA PaCa-2 [10] = experiment: Effect on cell cycle in human MiaPaCa2 cells assessed as accumulation at G2/M phase at 5 uM after 24 hrs by […]; format: functional
[11] = Binding affinity to poly dA-poly dT 0.05 mol/dm^3 by UV/vis titration
SW-620 = experiment: Antiproliferative activity against human SW620 cells after 72 hrs by MTT assay; format: functional, cell-based; settings: SW-620, 72 h
MIA PaCa-2 [12] = experiment: Effect on cell cycle in human MiaPaCa2 cells assessed as accumulation at sub-G1 phase at 5 uM after 48 hrs by Annexin-V assay; format: functional
MIA PaCa-2 [13] = experiment: Effect on cell cycle in human MiaPaCa2 cells assessed as accumulation at G1/G0 phase at 5 uM after 48 hrs by […]; format: functional
MIA PaCa-2 [14] = experiment: Effect on cell cycle in human MiaPaCa2 cells assessed as accumulation at sub-G1 phase at 5 uM after 72 hrs by Annexin-V assay; format: functional
[15] = Binding affinity to poly G-poly C 0.05 mol/dm^3 by UV/vis titration
[16] = Antiproliferative activity against human WI38 cells after 72 hrs by MTT assay; format: cell-based; settings: WI-38, 72 h
HeLa = experiment: Antiproliferative activity against human HeLa cells after 72 hrs by MTT assay; format: functional, cell-based
MIA PaCa-2 [17] = experiment: Effect on cell cycle in human MiaPaCa2 cells assessed as accumulation at sub-G1 phase at 5 uM after 24 hrs by […]; format: functional
[18] = Binding affinity to poly dA-poly dT 0.15 mol/dm^3 by UV/vis titration
[19] = Binding affinity to poly A-poly U 0.15 mol/dm^3 by UV/vis titration

| log Ks [1] | pIC50 (MCF7) | pIC50 (MIA PaCa-2 [5]) | log Ks [11] | pIC50 (SW-620) | log Ks [15] | pIC50 (HeLa) | SMILES | Activity (MIA PaCa-2 [2]) | Activity (MIA PaCa-2 [3]) | Activity (MIA PaCa-2 [4]) | Activity (MIA PaCa-2 [6]) | Activity (MIA PaCa-2 [7]) | pIC50 (HEp-2) | Activity (MIA PaCa-2 [8]) | Activity (MIA PaCa-2 [9]) | Activity (MIA PaCa-2 [10]) | Activity (MIA PaCa-2 [12]) | Activity (MIA PaCa-2 [13]) | Activity (MIA PaCa-2 [14]) | pIC50 [16] | other results |
| --- | --- | --- | --- | --- | --- | --- | --- | --- | --- | --- | --- | --- | --- | --- | --- | --- | --- | --- | --- | --- | --- |
| 5.9 | 5.59 | 5.59 | 5.3 | 5.40 | 6.1 | 4.87 | C[n+]1ccc(CCC(=O)OCCCC2=C/Nc3ccccc3/N=C/C(CCCOC(=O)CCc3cc[n+](C)cc3)=C\Nc3ccccc3\N=C\2)cc1.[Br-].[Br-] | 9.7% | 5.39% | 10.5% | 16.29% | 10.98% | 4.42 | 84.02% | 62.32% | 21.76% | 10% | 79.3% | 20% | 5.40 | Activity (MIA PaCa-2 [17]): 5.3% |
| 5.19 | 5.22 | 5.92 | 6.1 | 4.73 | 4.2 | 5.70 | C1=C(CCC[n+]2ccccc2)\C=N\c2ccccc2N/C=C(CCC[n+]2ccccc2)\C=N\c2ccccc2N/1.[Br-].[Br-] | 17.538% | 31.03% | 10.7% | 28.4% | 16.38% | 4.96 | 58.34% | 47.56% | 24.054% | 11% | 65.59% | 40% | 5.00 | log Ks [18]: 4.77; log Ks [19]: 5.4; Activity (MIA PaCa-2 [17]): 9.2% |
|  | ≤ 4.00 | < 4.00 |  | < 4.30 |  | < 4.00 | C1=C(CCC[n+]2ccc(-c3ccncc3)cc2)\C=N\c2ccccc2N/C=C(CCC[n+]2ccc(-c3ccncc3)cc2)\C=N\c2ccccc2N/1 |  |  |  |  |  | < 4.00 |  |  |  |  |  |  | < 4.00 |  |
